From patent US20250230165A1, “HETEROCYCLIC COMPOUNDS FOR USE IN THE TREATMENT OF CANCER” (ARTIOS PHARMA LIMITED, priority 2021, published 2025)

Target: T1, Human Polθ polymerase domain (aa1820-2590) (Homo sapiens, UniProt O75417)
T1 construct: Human Polθ polymerase domain (aa1820-2590) was expressed in E. coli; made in house; host or cells: E. coli
T1 sequence (O75417 1820-2590): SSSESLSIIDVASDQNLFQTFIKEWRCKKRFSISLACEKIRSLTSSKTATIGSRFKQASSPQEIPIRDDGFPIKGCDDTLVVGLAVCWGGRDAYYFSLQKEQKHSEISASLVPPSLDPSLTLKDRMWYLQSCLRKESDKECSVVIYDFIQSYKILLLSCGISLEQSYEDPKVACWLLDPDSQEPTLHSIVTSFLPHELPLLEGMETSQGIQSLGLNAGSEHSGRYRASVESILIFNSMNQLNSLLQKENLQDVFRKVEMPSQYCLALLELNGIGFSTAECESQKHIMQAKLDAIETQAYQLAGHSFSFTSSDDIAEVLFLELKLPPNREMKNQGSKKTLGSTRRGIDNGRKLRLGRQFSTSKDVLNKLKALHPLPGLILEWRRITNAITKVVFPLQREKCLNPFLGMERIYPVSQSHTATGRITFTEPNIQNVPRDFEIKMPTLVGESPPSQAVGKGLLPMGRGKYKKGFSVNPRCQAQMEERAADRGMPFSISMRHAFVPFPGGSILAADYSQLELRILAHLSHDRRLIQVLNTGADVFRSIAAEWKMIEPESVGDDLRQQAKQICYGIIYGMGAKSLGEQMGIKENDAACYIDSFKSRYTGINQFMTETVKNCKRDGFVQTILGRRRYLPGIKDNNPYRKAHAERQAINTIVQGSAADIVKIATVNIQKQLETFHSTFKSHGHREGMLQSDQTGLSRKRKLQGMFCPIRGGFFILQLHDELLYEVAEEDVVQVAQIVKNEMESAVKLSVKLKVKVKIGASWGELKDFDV
Assay: Polθ Polymerase Domain Kinact/KI Assay (PicoGreen)
Type: biochemical
Conditions: 0.8 nM Polθ, 100 nM DNA substrate, kobs vs [I] fit for 2-step covalent inhibitor
Procedure, shortened: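 Time-dependent inhibition was followed by quenching reactions with EDTA at points up to 60 min, then staining product DNA with PicoGreen fluorescence. Reactions held 0.8 nM E. coli-expressed Polθ, 100 nM primed DNA substrate and […] at pH 7.5, 1% DMSO. kobs versus inhibitor concentration gave Kinact and KI.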

Row | Kinact/Kl | SMILES
1 | 920000 M⁻¹ s⁻¹ | C=CC(=O)N1CC(N2CCN(CCN3C[C@H]4CC(=O)N(c5cc(C(F)(F)F)cc(C)n5)[C@@H]4C(=O)N(C)c4cccc(Cl)c43)CC2=O)C1 [Example 112, (3aR,11aS)-5-(2-(4-(1-acryloylazetidin-3-yl)-3-oxopiperazin-1-yl)ethyl)-6-chloro-10-methyl-1-(6-methyl-4-(trifluoromethyl)pyridin-2-yl)-1,3a,4,5,10,11a-hexahydro-2H-benzo[b]pyrrolo[2,3-f][1,4]diazocine-2,11(3H)-dione]
2 | 580000 M⁻¹ s⁻¹ | C=CC(=O)N1CC2(CN(CCN3C[C@H]4CC(=O)N(c5cc(C(F)(F)F)cc(C)n5)[C@@H]4C(=O)N(C)c4cccc(C)c43)CCN2)C1 [Example 114, (3aR,11aS)-5-(2-(2-acryloyl-2,5,8-triazaspiro[3.5]nonan-8-yl)ethyl)-6,10-dimethyl-1-(6-methyl-4-(trifluoromethyl)pyridin-2-yl)-1,3a,4,5,10,11a-hexahydro-2H-benzo[b]pyrrolo[2,3-f][1,4]diazocine-2,11(3H)-dione]
3 | 2.35e+06 M⁻¹ s⁻¹ | C=CC(=O)N1CC(N2CCN(CCN3C[C@H]4CC(=O)N(c5cc(C(F)(F)F)cc(C)n5)[C@@H]4C(=O)N(C)c4cccc(C)c43)CC2)C1 [Example 115, (3aR,11aS)-5-(2-(4-(1-acryloylazetidin-3-yl)piperazin-1-yl)ethyl)-6,10-dimethyl-1-(6-methyl-4-(trifluoromethyl)pyridin-2-yl)-1,3a,4,5,10,11a-hexahydro-2H-benzo[b]pyrrolo[2,3-f][1,4]diazocine-2,11(3H)-dione]
4 | 890000 M⁻¹ s⁻¹ | C=CC(=O)N1CC(n2ccc(CN3C[C@H]4CC(=O)N(c5cc(C(F)(F)F)cc(C)n5)[C@@H]4C(=O)N(C)c4cccc(F)c43)n2)C1 [Example 120, (3aR,11aS)-5-((1-(1-acryloylazetidin-3-yl)-1H-pyrazol-3-yl)methyl)-6-fluoro-10-methyl-1-(6-methyl-4-(trifluoromethyl)pyridin-2-yl)-1,3a,4,5,10,11a-hexahydro-2H-benzo[b]pyrrolo[2,3-f][1,4]diazocine-2,11(3H)-dione]
5 | 540000 M⁻¹ s⁻¹ | C=CC(=O)N1CC(n2cc(CN3C[C@H]4CC(=O)N(c5cc(C(F)(F)F)cc(C)n5)[C@@H]4C(=O)N(C)c4cccc(F)c43)cn2)C1 [Example 121, (3aR,11aS)-5-((1-(1-acryloylazetidin-3-yl)-1H-pyrazol-4-yl)methyl)-6-fluoro-10-methyl-1-(6-methyl-4-(trifluoromethyl)pyridin-2-yl)-1,3a,4,5,10,11a-hexahydro-2H-benzo[b]pyrrolo[2,3-f][1,4]diazocine-2,11(3H)-dione]
6 | 610000 M⁻¹ s⁻¹ | C=CC(=O)N1CC(c2nc(CN3C[C@H]4CC(=O)N(c5cc(C(F)(F)F)cc(C)n5)[C@@H]4C(=O)N(C)c4cccc(F)c43)c[nH]2)C1 [Example 122, (3aR,11aS)-5-((2-(1-acryloylazetidin-3-yl)-1H-imidazol-4-yl)methyl)-6-fluoro-10-methyl-1-(6-methyl-4-(trifluoromethyl)pyridin-2-yl)-1,3a,4,5,10,11a-hexahydro-2H-benzo[b]pyrrolo[2,3-f][1,4]diazocine-2,11(3H)-dione]
7 | 270000 M⁻¹ s⁻¹ | C=CC(=O)N1CC(n2cnc(CN3C[C@H]4CC(=O)N(c5cc(C(F)(F)F)cc(C)n5)[C@@H]4C(=O)N(C)c4cccc(F)c43)n2)C1 [Example 123, (3aR,11aS)-5-((1-(1-acryloylazetidin-3-yl)-1H-1,2,4-triazol-3-yl)methyl)-6-fluoro-10-methyl-1-(6-methyl-4-(trifluoromethyl)pyridin-2-yl)-1,3a,4,5,10,11a-hexahydro-2H-benzo[b]pyrrolo[2,3-f][1,4]diazocine-2,11(3H)-dione]
8 | 11000 M⁻¹ s⁻¹ | C=CC(=O)N1CCN(c2nc(CN3C[C@H]4CC(=O)N(c5cc(C(F)(F)F)cc(C)n5)[C@@H]4C(=O)N(C)c4cccc(F)c43)co2)CC1 [Example 124, (3aR,11aS)-5-((2-(4-acryloylpiperazin-1-yl)oxazol-4-yl)methyl)-6-fluoro-10-methyl-1-(6-methyl-4-(trifluoromethyl)pyridin-2-yl)-1,3a,4,5,10,11a-hexahydro-2H-benzo[b]pyrrolo[2,3-f][1,4]diazocine-2,11(3H)-dione]
9 | 2.53e+06 M⁻¹ s⁻¹ | C=CC(=O)N1CCN(c2nc(CN3C[C@H]4CC(=O)N(c5cc(C(F)(F)F)cc(C)n5)[C@@H]4C(=O)N(C)c4cccc(F)c43)c[nH]2)CC1 [Example 125, (3aR,11aS)-5-((2-(4-acryloylpiperazin-1-yl)-1H-imidazol-4-yl)methyl)-6-fluoro-10-methyl-1-(6-methyl-4-(trifluoromethyl)pyridin-2-yl)-1,3a,4,5,10,11a-hexahydro-2H-benzo[b]pyrrolo[2,3-f][1,4]diazocine-2,11(3H)-dione]
10 | 460000 M⁻¹ s⁻¹ | C=CC(=O)N1CCC(n2cnc(CN3C[C@H]4CC(=O)N(c5cc(C(F)(F)F)cc(C)n5)[C@@H]4C(=O)N(C)c4cccc(F)c43)n2)CC1 [Example 126, (3aR,11aS)-5-((1-(1-acryloylpiperidin-4-yl)-1H-1,2,4-triazol-3-yl)methyl)-6-fluoro-10-methyl-1-(6-methyl-4-(trifluoromethyl)pyridin-2-yl)-1,3a,4,5,10,11a-hexahydro-2H-benzo[b]pyrrolo[2,3-f][1,4]diazocine-2,11(3H)-dione]
11 | 650000 M⁻¹ s⁻¹ | C=CC(=O)N1CC(c2cccc(CN3C[C@H]4CC(=O)N(c5cc(C(F)(F)F)cc(C)n5)[C@@H]4C(=O)N(C)c4cccc(F)c43)c2)C1 [Example 127, (3aR,11aS)-5-(3-(1-acryloylazetidin-3-yl)benzyl)-6-fluoro-10-methyl-1-(6-methyl-4-(trifluoromethyl)pyridin-2-yl)-1,3a,4,5,10,11a-hexahydro-2H-benzo[b]pyrrolo[2,3-f][1,4]diazocine-2,11(3H)-dione]
12 | 660000 M⁻¹ s⁻¹ | C=CC(=O)N1CC(c2cccc(CN3C[C@H]4CC(=O)N(c5cc(C(F)(F)F)cc(C)n5)[C@@H]4C(=O)N(C)c4cccc(F)c43)n2)C1 [Example 128, (3aR,11aS)-5-((6-(1-acryloylazetidin-3-yl)pyridin-2-yl)methyl)-6-fluoro-10-methyl-1-(6-methyl-4-(trifluoromethyl)pyridin-2-yl)-1,3a,4,5,10,11a-hexahydro-2H-benzo[b]pyrrolo[2,3-f][1,4]diazocine-2,11(3H)-dione]
13 | 400000 M⁻¹ s⁻¹ | C=CC(=O)N1CC(c2nccc(CN3C[C@H]4CC(=O)N(c5cc(C(F)(F)F)cc(C)n5)[C@@H]4C(=O)N(C)c4cccc(F)c43)n2)C1 [Example 129, (3aR,11aS)-5-((2-(1-acryloylazetidin-3-yl)pyrimidin-4-yl)methyl)-6-fluoro-10-methyl-1-(6-methyl-4-(trifluoromethyl)pyridin-2-yl)-1,3a,4,5,10,11a-hexahydro-2H-benzo[b]pyrrolo[2,3-f][1,4]diazocine-2,11(3H)-dione]
14 | 710000 M⁻¹ s⁻¹ | C=CC(=O)N1Cc2ccc(CN3C[C@H]4CC(=O)N(c5cc(C(F)(F)F)cc(C)n5)[C@@H]4C(=O)N(C)c4cccc(F)c43)cc2C1 [Example 130, (3aR,11aS)-5-((2-acryloylisoindolin-5-yl)methyl)-6-fluoro-10-methyl-1-(6-methyl-4-(trifluoromethyl)pyridin-2-yl)-1,3a,4,5,10,11a-hexahydro-2H-benzo[b]pyrrolo[2,3-f][1,4]diazocine-2,11(3H)-dione]
